Assay results as given in patent publication US8211885B2, “Cyclic indole-3-carboxamides, their preparation and their use as pharmaceuticals” (Sanofi-Aventis, priority 2008, dated 2012).

target: T1, Recombinant human renin (Homo sapiens, UniProt P00797); experiment: Inhibition of renin (fluorogenic peptide substrate); type: biochemical; details: not given
T1 construct: purchased Cayman 10006217
T1 sequence (P00797 67-406): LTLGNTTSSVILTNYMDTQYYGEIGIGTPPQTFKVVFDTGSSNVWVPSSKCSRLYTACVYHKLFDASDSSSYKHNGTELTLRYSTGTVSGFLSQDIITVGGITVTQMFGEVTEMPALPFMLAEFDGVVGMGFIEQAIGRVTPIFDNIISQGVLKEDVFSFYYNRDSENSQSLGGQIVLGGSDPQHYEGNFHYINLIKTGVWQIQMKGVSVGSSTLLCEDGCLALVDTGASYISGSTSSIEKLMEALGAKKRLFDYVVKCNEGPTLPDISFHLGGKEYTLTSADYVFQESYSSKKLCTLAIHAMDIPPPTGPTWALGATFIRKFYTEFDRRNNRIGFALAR
Experimental: Recombinant human renin (Cayman, no. 10006217) at a concentration of 5 nM was incubated with the test compounds at various concentrations and the synthetic substrate Dabcyl-γ-Abu-[…]EDANS (Bachem, no. M-2050; Dabcyl means the 4-(4-dimethylamino-phenylazo)-benzoyl group and EDANS means the amide with 5-[(2-aminoethyl)amino]-naphthalene-1-sulfonic acid) at a concentration of 10 μM for 2 h at room temperature in 0.05 M Tris buffer (pH 8) containing 0.1 M NaCl, 2.5 mM EDTA and 1.25 mg/ml bovine serum albumin. The increase in fluorescence, which is due to fluorescence resonance energy transfer, was recorded at an excitation wavelength of 330 nm and an emission wavelength of 485 nm in a microplate spectrofluorometer. Inhibitory concentrations IC50 were calculated from the percentage of inhibition of renin activity as a function of the concentration of the test compound.

Compound | IC50
CN(c1ccccc1)c1c(C(=O)N2CCNCC2)c2ccccc2n1-c1ccccc1 [Example 3, [2-(Methyl-phenyl-amino)-1-phenyl-1H-indol-3-yl]-piperazin-1-yl-methanone] | 3200 nM

same assay, conditions: renin 5 nM, substrate Dabcyl-γ-Abu-[…]-EDANS 10 μM, 2 h room temperature, Tris buffer pH 8; compounds tested as the obtained salt; read-out: IC50 values for inhibition of renin (fluorogenic peptide substrate)

Compound | IC50
O=C(c1c(Oc2ccccc2)n(-c2ccccc2)c2ccccc12)N1CCCNCC1 [Example 5, Perhydro-1,4-diazepin-1-yl-(2-phenoxy-1-phenyl-1H-indol-3-yl)-methanone] | 3400 nM
Cc1ccc(F)cc1Oc1c(C(=O)N2CCNCC2)c2ccccc2n1C1C=CCCC1 (centres unmarked) [Example 22, [1-Cyclohex-2-enyl-2-(5-fluoro-2-methyl-phenoxy)-1H-indol-3-yl]-piperazin-1-yl-methanone] | 7.2 nM
O=C(c1c(Oc2ccccc2)n(-c2ccccc2)c2ccccc12)N1CCNC(CO)C1 (centres unmarked) [Example 24, (3-Hydroxymethyl-piperazin-1-yl)-(2-phenoxy-1-phenyl-1H-indol-3-yl)-methanone] | 1600 nM
Cc1ccc(F)cc1Oc1c(C(=O)N2CCNCC2)c2ccc(OCC(=O)O)cc2n1-c1ccccc1 [Example 30, [2-(5-Fluoro-2-methyl-phenoxy)-1-phenyl-3-(piperazine-1-carbonyl)-1H-indol-6-yloxy]-acetic acid] | 130 nM
Cc1ccccc1Sc1c(C(=O)N2CCNCC2)c2ccccc2n1-c1ccccc1 [Example 108] | 71 nM
Cc1ccccc1Cc1c(C(=O)N2CCNCC2)c2ccccc2n1-c1ccsc1 [Example 113] | 230 nM
O=C(c1c(Oc2ccccc2)n(-c2ccccc2)c2ccccc12)N1CCNCC1Cc1ccccc1 (centres unmarked) [Example 126] | 4500 nM
